24 molecules from patent US20160052926A1, “NOVEL PYRIMIDINE AND PYRIDINE COMPOUNDS AND USAGE THEREOF” (HUTCHISON MEDIPHARMA LIMITED, priority 2013, published 2016) can be followed below.

The target of test [1] is Recombinant human FGFR1 (Homo sapiens, UniProt P11362). The experiment in a line: Transcreener Kinase Assay of FGFR1. It counts as biochemical.
The target of test [2] is Recombinant human FGFR2 (Homo sapiens, UniProt P21802). Put plainly: Transcreener Kinase Assay of FGFR2. It counts as biochemical.
Sequence of Recombinant human FGFR2 (P21802 22-821): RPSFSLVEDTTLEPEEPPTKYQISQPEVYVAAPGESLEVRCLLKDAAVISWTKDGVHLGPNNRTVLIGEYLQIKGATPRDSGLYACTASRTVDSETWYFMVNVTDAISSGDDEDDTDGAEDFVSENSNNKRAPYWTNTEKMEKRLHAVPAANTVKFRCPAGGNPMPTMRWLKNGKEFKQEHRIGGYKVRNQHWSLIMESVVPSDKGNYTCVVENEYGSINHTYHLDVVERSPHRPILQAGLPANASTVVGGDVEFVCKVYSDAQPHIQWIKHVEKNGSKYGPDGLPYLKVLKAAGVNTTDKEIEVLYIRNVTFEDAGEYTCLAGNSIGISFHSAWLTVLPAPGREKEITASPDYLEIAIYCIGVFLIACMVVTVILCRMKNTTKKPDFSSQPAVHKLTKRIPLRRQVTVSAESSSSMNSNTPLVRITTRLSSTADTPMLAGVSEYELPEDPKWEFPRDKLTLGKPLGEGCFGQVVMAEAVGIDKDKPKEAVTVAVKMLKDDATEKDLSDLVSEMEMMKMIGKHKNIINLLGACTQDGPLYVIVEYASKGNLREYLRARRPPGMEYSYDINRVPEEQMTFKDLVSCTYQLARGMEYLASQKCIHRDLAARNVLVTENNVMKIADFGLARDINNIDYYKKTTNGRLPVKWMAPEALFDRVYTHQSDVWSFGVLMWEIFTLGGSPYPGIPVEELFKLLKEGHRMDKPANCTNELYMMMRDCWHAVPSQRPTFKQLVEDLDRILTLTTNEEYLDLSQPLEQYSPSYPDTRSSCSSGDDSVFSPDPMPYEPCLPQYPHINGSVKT
Test [3] has as its target FGFR3 kinase (Homo sapiens, UniProt P22607). Put plainly: Z-Lyte Kinase Assay of FGFR3. Format: biochemical. A digest of the protocol: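 Kinase at 0.7 μg/ml with 4 μM Z-LYTE Tyr 4 peptide and ATP diluted to 300 uM (working solution, 1.33× buffer); compounds 1–0.00046 μM, 2% DMSO final. Kinase reaction and development each 1 h at RT (25-30[…]); coumarin (445 nm) and fluorescein (520 nm) emission read, inhibition from % phosphorylation.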

Test [4] concerns KG-1. Put plainly: Cellular Proliferation Assay (Cell Counting Kit-8), KG-1. Format: cell-based. The conditions noted are these: Homo sapiens, KG1 cells, 72 hours. How it is done: (§1) Cellular Proliferation Assay
(§2) • KG-1 (ATCC Accession No. CCL-246), • SNU-16 (ATCC Accession No. CRL-5974), • RT-112 (ECACC Accession No. 85061106)
(§3) • FGFR related cancer cell proliferation is measured in 96-well plates using Cell Counting Kit-8 (Dojindo CK04-13). • Seed 30000 cells/well of KG1, 5000 cells/well of SNU16, and 1000 cells/well of RT112 in a volume of 100 μL/well in growth media. • After 24 hours, dilute the compound to 10, 3.3, 1.1, 0.37, 0.12, 0.04, 0.013, 0.004 μM, keeping the DMSO concentration at 5%. • Add 10 μL of 8-point compound series to the wells of culturing cells. • Incubate at 37° C. and 5% CO2 for 72 hours • Add 10 μL/well of CCkit8 and incubate at 37° C. and 5% CO2 for an hour • Detect the optical density of each well at 450 nm on Labsystems Multiskan K3.
(§4) • ODcompound well represents the optical density of cells treated with compound. • ODcell well represents the optical density of cells without compounds treatment. (only 0.5% DMSO) • ODcontrol well represents the optical density of culture media background
(§5) The concentration of compound providing 50% of proliferation inhibition was calculated using Excel Fit.
(In general: Tetrazolium dyes change colour on reduction, which living cells bring about.)

The subject of test [5] is SNU-16. Put plainly: Cellular Proliferation Assay (Cell Counting Kit-8), SNU-16. It counts as cell-based. The conditions noted are these: Homo sapiens, SNU-16 cells, 72 hours. The method, then:
as §1, §2, §3, §4, §5

For test [6], the system named is RT-112. The experiment in a line: Cellular Proliferation Assay (Cell Counting Kit-8), RT-112. Format: cell-based. As to conditions: Homo sapiens, RT-112 cells, 72 hours. The method, then:
as §1, §2, §3, §4, §5

Read-outs that look alike come from different tables or passages of the source.

Sequence of FGFR3 kinase (P22607 23-806): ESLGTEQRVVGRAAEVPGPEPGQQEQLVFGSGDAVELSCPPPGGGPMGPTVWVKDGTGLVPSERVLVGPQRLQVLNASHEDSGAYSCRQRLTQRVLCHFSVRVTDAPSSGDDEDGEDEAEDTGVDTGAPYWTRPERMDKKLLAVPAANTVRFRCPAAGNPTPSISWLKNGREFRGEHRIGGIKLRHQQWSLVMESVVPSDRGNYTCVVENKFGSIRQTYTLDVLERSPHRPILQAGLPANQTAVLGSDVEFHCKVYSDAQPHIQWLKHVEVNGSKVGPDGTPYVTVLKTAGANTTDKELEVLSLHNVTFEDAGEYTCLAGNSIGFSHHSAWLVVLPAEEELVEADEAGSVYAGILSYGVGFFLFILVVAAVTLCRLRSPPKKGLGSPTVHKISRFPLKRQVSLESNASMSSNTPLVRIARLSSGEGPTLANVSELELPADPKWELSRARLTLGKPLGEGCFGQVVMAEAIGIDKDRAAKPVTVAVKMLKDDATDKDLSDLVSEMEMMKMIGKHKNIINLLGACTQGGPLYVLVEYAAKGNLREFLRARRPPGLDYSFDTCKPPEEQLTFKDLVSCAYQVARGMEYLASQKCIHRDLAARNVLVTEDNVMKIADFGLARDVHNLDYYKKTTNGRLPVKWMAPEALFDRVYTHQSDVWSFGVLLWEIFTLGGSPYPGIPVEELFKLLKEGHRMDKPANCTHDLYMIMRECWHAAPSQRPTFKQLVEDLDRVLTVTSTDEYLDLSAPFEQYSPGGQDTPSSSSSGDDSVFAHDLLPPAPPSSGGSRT
Sequence of Recombinant human FGFR1 (P11362 22-822): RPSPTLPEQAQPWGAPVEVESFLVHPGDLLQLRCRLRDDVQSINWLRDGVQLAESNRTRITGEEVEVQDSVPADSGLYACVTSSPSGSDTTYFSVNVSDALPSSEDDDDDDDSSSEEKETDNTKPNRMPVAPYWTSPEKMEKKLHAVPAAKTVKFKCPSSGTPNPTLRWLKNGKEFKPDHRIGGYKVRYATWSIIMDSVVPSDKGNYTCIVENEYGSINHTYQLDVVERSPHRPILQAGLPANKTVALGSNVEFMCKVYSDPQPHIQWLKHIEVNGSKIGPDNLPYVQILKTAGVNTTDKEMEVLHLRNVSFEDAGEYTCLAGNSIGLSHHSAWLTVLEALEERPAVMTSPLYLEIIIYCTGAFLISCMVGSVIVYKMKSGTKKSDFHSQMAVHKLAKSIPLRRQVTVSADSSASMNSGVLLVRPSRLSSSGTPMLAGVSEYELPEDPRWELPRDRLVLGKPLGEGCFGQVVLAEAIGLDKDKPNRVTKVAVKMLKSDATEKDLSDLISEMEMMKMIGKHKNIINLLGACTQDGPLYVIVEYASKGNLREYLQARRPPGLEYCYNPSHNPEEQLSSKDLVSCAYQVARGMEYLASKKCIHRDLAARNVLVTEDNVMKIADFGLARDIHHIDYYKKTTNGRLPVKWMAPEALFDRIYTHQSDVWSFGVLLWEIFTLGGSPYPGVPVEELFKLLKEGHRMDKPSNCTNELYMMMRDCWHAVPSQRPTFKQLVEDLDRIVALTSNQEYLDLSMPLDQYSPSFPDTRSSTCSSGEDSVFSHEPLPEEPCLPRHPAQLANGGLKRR

Turning to `CNC(=O)c1cc(CCc2cnc(Nc3cnn(C4CCC4)c3)nc2)c(Cl)c(OC)c1` [Compound 81], the IC50 in test [1] (read-out: FGFR1 (FP) IC50) stood at 8 nM; in test [2] (read-out: FGFR2 (FP) IC50), 5 nM; in test [3], 11 nM; in test [4] it was 16 nM; in test [5], 25 nM; in test [6], 10 nM.

For `CNC(=O)c1cc(CCc2cnc(Nc3cnn(C)c3)nc2)c(F)c(OC)c1` [Compound 25], the IC50 stood at 15 nM in test [1] (read-out: FGFR1 (FP) IC50); 8 nM in test [2] (read-out: FGFR2 (FP) IC50); 30 nM in test [3]; 39 nM in test [4]; 23 nM in test [5]; 218 nM in test [6].

Turning to `CNC(=O)c1cc(COc2cnc(Nc3ccc(N4C[C@@H](C)N[C@@H](C)C4)c(C)c3)nc2)c(F)c(OC)c1` [Compound 194], the IC50 worked out at 14 nM in test [1] (read-out: FGFR1 (FP) IC50); 14 nM in test [2] (read-out: FGFR2 (FP) IC50); 20 nM in test [3]; 60 nM in test [4]; 31 nM in test [5]; 27 nM in test [6].

Regarding `CNC(=O)c1cc(COc2cnc(Nc3ccc(N4C[C@@H](C)N[C@@H](C)C4)nc3)nc2)c(F)c(OC)c1` [Compound 201], the IC50 turned out to be 29 nM in test [1] (read-out: FGFR1 (FP) IC50); 12 nM in test [2] (read-out: FGFR2 (FP) IC50); 19 nM in test [3]; 1100 nM in test [4]; 19 nM in test [5]; 66 nM in test [6].

Regarding `CNC(=O)c1cc(CCc2cnc(Nc3ccc(N4CCNC(C)(C)C4)cc3)nc2)c(Cl)c(OC)c1` [Compound 200], the IC50 in test [1] (read-out: FGFR1 (FP) IC50) was found to be 9 nM; in test [2] (read-out: FGFR2 (FP) IC50) it was 6 nM; in test [3], 6 nM; in test [4], 91 nM; in test [5], 20 nM; in test [6], 34 nM.

Regarding `CCN(CC)CCn1cc(Nc2ncc(OCc3cc(C(=O)NC)cc(OC)c3F)cn2)cn1` [Compound 189], the IC50 worked out at 23 nM in test [1] (read-out: FGFR1 (FP) IC50); 20 nM in test [2] (read-out: FGFR2 (FP) IC50); 13 nM in test [3]; 38 nM in test [4]; 28 nM in test [5]; 23 nM in test [6].

As for `CCN(CC)CCn1cc(Nc2ncc(CCc3cc(C(=O)NC)cc(OC)c3Cl)cn2)cn1` [Compound 86], the IC50 in test [1] (read-out: FGFR1 (FP) IC50) worked out at 17 nM; in test [2] (read-out: FGFR2 (FP) IC50), 10 nM; in test [3], 10 nM; in test [4], 42 nM; in test [5], 16 nM; in test [6], 12 nM.

As for `CONC(=O)c1cc(CCc2cnc(Nc3ccc(N4C[C@@H](C)N[C@@H](C)C4)c(C)c3)nc2)cc(OC)c1` [Compound 49], the IC50 is 6 nM in test [1] (read-out: FGFR1 (FP) IC50); 5 nM in test [2] (read-out: FGFR2 (FP) IC50); 8 nM in test [3]; 75 nM in test [4]; 18 nM in test [5]; 62 nM in test [6].

Turning to `CONC(=O)c1cc(CCc2cnc(Nc3ccc(F)cc3)nc2)cc(OC)c1` [Compound 104], the concentration for half-maximal inhibition (IC50) in test [1] (read-out: FGFR1 (FP) IC50) was 15 nM; in test [2] (read-out: FGFR2 (FP) IC50), 9 nM; in test [3], 44 nM; in test [4], 53 nM; in test [5], 38 nM; in test [6], 142 nM.

With `CNC(=O)c1cc(CCc2cnc(Nc3cnc4ccnn4c3)nc2)c(F)c(OC)c1` [Compound 94], the 50% inhibitory concentration (IC50) is 161 nM in test [1] (read-out: FGFR1 (FP) IC50); 53 nM in test [2] (read-out: FGFR2 (FP) IC50); 213 nM in test [3]; 344 nM in test [4]; 170 nM in test [5]; 287 nM in test [6].

Turning to `CCNC(=O)c1cc(COc2cnc(Nc3ccc(N4C[C@@H](C)N[C@@H](C)C4)cc3)nc2)c(F)c(OC)c1` [Compound 205], the IC50 in test [1] (read-out: FGFR1 (FP) IC50) was found to be 36 nM; in test [2] (read-out: FGFR2 (FP) IC50), 25 nM; in test [3], 28 nM; in test [4], 68 nM; in test [5], 37 nM; in test [6] it was 97 nM.

As for `CCn1cc(Nc2ncc(CCc3cc(C(=O)NC)cc(OC)c3F)cn2)cn1` [Compound 100, 3-(2-(2-(1-ethyl-1H-pyrazol-4-ylamino)pyrimidin-5-yl)ethyl)-4-fluoro-5-methoxy-N-methylbenzamide], the IC50 turned out to be 12 nM in test [1] (read-out: FGFR1 (FP) IC50); 5 nM in test [2] (read-out: FGFR2 (FP) IC50); 13 nM in test [3]; 21 nM in test [4]; 24 nM in test [5]; 94 nM in test [6].

Regarding `CCNC(=O)c1cc(CCc2cnc(Nc3cnn(C)c3)nc2)c(Cl)c(OC)c1` [Compound 147], the IC50 was 19 nM in test [1] (read-out: FGFR1 (FP) IC50); 10 nM in test [2] (read-out: FGFR2 (FP) IC50); 22 nM in test [3]; 48 nM in test [4]; 46 nM in test [5]; 334 nM in test [6].

Turning to `CNC(=O)c1cc(CCc2cnc(Nc3ccnc(C)c3)nc2)c(F)c(OC)c1` [Compound 60, 4-fluoro-3-methoxy-N-methyl-5-(2-(2-((2-methylpyridin-4-yl)amino)pyrimidin-5-yl)ethyl)benzamide], the half-maximal inhibitory concentration (IC50) in test [1] (read-out: FGFR1 (FP) IC50) turned out to be 16 nM; in test [2] (read-out: FGFR2 (FP) IC50), 7 nM; in test [3] it was 23 nM; in test [4] it was 51 nM; in test [5], 46 nM; in test [6], 137 nM.

For `CCn1cc(Nc2ncc(/C=C/c3cc(C(=O)NC)cc(OC)c3Br)cn2)cn1` [Compound 3], the values for the IC50 in test [4], in test [5] and in test [6] were 72 nM, 134 nM and 370 nM, respectively.

As to `CNC(=O)c1cc(CCc2cnc(Nc3cnn(CCN4CCOCC4)c3)nc2)c(F)c(OC)c1` [Compound 139], the IC50 in test [1] (read-out: FGFR1 (FP) IC50) was 12 nM; in test [2] (read-out: FGFR2 (FP) IC50), 6 nM; in test [3] it was 8 nM; in test [4] it was 64 nM; in test [5], 22 nM; in test [6], 146 nM.

`CCN(CC)CCn1cc(Nc2ncc(OCc3cc(C(=O)NC)cc(OC)c3Cl)cn2)cn1` [Compound 190]: the IC50 in test [1] (read-out: FGFR1 (FP) IC50) worked out at 12 nM; in test [2] (read-out: FGFR2 (FP) IC50), 9 nM; in test [3] it was 7 nM; in test [4] it was 37 nM; in test [5], 16 nM; in test [6], 17 nM.

Consider `CNC(=O)c1cc(COc2cnc(Nc3cnn(C)c3)nc2)c(Cl)c(OC)c1` [Compound 183], for which the concentration for half-maximal inhibition (IC50) in test [1] (read-out: FGFR1 (FP) IC50) came out at 7 nM; in test [2] (read-out: FGFR2 (FP) IC50), 5 nM; in test [4], 9 nM; in test [5], 8 nM; in test [6], 14 nM.

For the molecule `CCn1ncc(Nc2ncc(CCc3cc(C(=O)NC)cc(OC)c3F)cn2)c1C` [Compound 110], the IC50 is 68 nM in test [1] (read-out: FGFR1 (FP) IC50); 14 nM in test [2] (read-out: FGFR2 (FP) IC50); 24 nM in test [3]; 95 nM in test [4]; 46 nM in test [5]; 197 nM in test [6].

Consider `COc1cc(C(=O)NC2CC2)cc(CCc2cnc(Nc3cnn(C)c3)nc2)c1Cl` [Compound 157], for which the IC50 was 20 nM in test [1] (read-out: FGFR1 (FP) IC50); 10 nM in test [2] (read-out: FGFR2 (FP) IC50); 19 nM in test [3]; 48 nM in test [4]; 48 nM in test [5]; 254 nM in test [6].

Consider `CNC(=O)c1cc(CCc2cnc(Nc3ccc4c(C)n(C)nc4c3)nc2)c(F)c(OC)c1` [Compound 130], for which the IC50 in test [1] (read-out: FGFR1 (FP) IC50) is 8 nM; in test [2] (read-out: FGFR2 (FP) IC50), 5 nM; in test [3], 10 nM; in test [4] it was 28 nM; in test [5] it was 32 nM; in test [6], 48 nM.

Regarding `CCn1cc(Nc2ncc(OCc3cc(C(=O)NC)cc(OC)c3Cl)cn2)cn1` [Compound 184], the IC50 in test [1] (read-out: FGFR1 (FP) IC50) worked out at 9 nM; in test [2] (read-out: FGFR2 (FP) IC50), 7 nM; in test [4] it was 5 nM; in test [5], 10 nM; in test [6], 53 nM.

Turning to `CCS(=O)(=O)n1cc(Nc2ncc(CCc3cc(C(=O)NC)cc(OC)c3F)cn2)cn1` [Compound 140, 3-(2-(2-(1-(ethylsulfonyl)-1H-pyrazol-4-ylamino)pyrimidin-5-yl)ethyl)-4-fluoro-5-methoxy-N-methylbenzamide], the IC50 amounted to 16 nM in test [2] (read-out: FGFR2 (FP) IC50); 60 nM in test [3]; 152 nM in test [4]; 62 nM in test [5]; 438 nM in test [6].

As for `CNC(=O)c1cc(CCc2cnc(Nc3cnn(CC4CC4)c3)nc2)c(F)c(OC)c1` [Compound 141, 3-(2-(2-(1-(cyclopropylmethyl)-1H-pyrazol-4-ylamino)pyrimidin-5-yl)ethyl)-4-fluoro-5-methoxy-N-methylbenzamide], the IC50 in test [1] (FGFR1 (FP) IC50) amounted to 11 nM; in test [2] (FGFR2 (FP) IC50) it was 5 nM; in test [4] it was 15 nM; in test [6] it was 112 nM.

The IC50 is the concentration needed to halve the response being measured.
